Three compounds from US9918916B2, “Active ingredient comprising a mixture of unsaturated dicarboxylic fatty acids, compositions comprising said ingredient and cosmetic or dermatological uses” (SEDERMA, priority 2014, dated 2018) can be followed below.

Format in all cases: cell-based
Assay [1] relates to hyaluronic acid. Kind of assay: Synthesis of hyaluronic acid by human keratinocytes. The settings on record: 1 μm. As for the experimental part:
Human keratinocytes are cultured for 24 h. The cells are contacted with the products to be tested or their excipient for 3 days. The culture supernatants are recovered and a dosage of the amount of hyaluronic acid is achieved. Retinoic acid is used as a positive control. Quantification of cells present on the layer is carried out with the DNA dye (Hoechst 33258), so as to adjust the dosages to the number of cells.

Assay [2] concerns G3PDH. Briefly: G3PDH activity on human adipocytes. The settings on record: 10 μm. As for the experimental part: In this perspective, in vitro tests aiming to show an increase in adipocyte differentiation (with glycerol-3-phosphate dehydrogenase or G3PDH as the key enzyme of this differentiation) on pre-adipocyte cultures were implemented. Other in vitro assays seek to show slower lipolysis on adipocyte cultures to validate the effectiveness of these compounds. Human pre-adipocytes are seeded and induced to differentiate with a specific mixture of inducers (without indomethacine*) in the presence or absence (negative control) of the products to be tested. After 10 days, the cultures are stopped and the residual […] activity is measured by spectrophotometry on a cellular lysate. […] Results

For assay [3], the system named is normal human melanocytes. Briefly: Inhibition of melanin synthesis on human melanocytes. The settings on record: 0.01%. As for the experimental part: Normal human melanocytes are cultured in their maintenance medium and then contacted with the products to be tested in the test medium for 10 days. After the contact, melanins are extracted from the cells and assayed by spectrophotometry (490 nm). An estimate of cell number is performed after cultivation using a protein assay by the BCA method. Melanin concentrations are normalized by the sample protein content.

The structures appear in SMILES notation.

Take `CC1=C(/C=C/C(C)=C/C=C/C(C)=C/C(=O)O)C(C)(C)CCC1` [Retinoic Acid]: the “stimulation of hyaluronic acid synthesis vs. control (positive control)” value in assay [1] is “+106%”. Take `CCc1ccc(CCOc2ccc(CC3SC(=O)NC3=O)cc2)nc1` (stereo not drawn) [Pioglytazone]: the “stimulation of G3PDH activity vs. control (positive control)” value in assay [2] is “+712%”. For `OC[C@H]1O[C@@H](Oc2ccc(O)cc2)[C@H](O)[C@@H](O)[C@@H]1O` [arbutine], the “inhibition compared to the control (melanin, positive reference)” value in assay [3] came out at 33%.
